Data taken from patent US9821008B2, “Inhibitors of ERCC1-XPF and methods of using the same” (The University of Toledo, priority 2013, dated 2017).
Read-outs that look alike come from different tables or passages of the source. One block for each compound: values may come before it.

How the values were obtained:
[1] = system: 2008/C13*5.25 (resistant) ovarian cancer cell line; experiment: colony survival after ERCC1-XPF siRNA and cisplatin treatment; format: cell-based; conditions: control siRNA; 2008/C13*5.25 vs 2008
Text: FIG. 1: Colony survival in matched ovarian cancer cell lines. 2008 (sensitive, squares) and 2008/C13*5.25 (resistant, circles) ovarian cancer cell lines were transfected with control or ERCC1-XPF siRNA and subjected to cisplatin treatment. IC50 values are indicated.
In order to assess whether ERCC1-XPF influences cisplatin resistance in ovarian cancer cell lines, a matched set of parental sensitive (2008s) and daughter resistant cell lines (2008/C13*5.25) were obtained. These are well characterized cell lines for assessing cisplatin resistance and effects in ovarian cancer.
Following greater than 90% ERCC1-XPF knockdown (data not shown), the resistant daughter cell line has a nearly 5-fold change in cisplatin sensitivity, making the cells as sensitive as the parental sensitive cell line (compare open circles with filled squares).

[2] = system: lung cancer cell line (H460); experiment: colony survival with cisplatin IC50 concentration, lead compound titrated (Combination Factor); format: cell-based
Procedure: (§1) Cells were treated with the cisplatin IC50 concentration while the lead compound was titrated into the experiment, and colony survival assessed. The Combination Factor is the concentration of lead compound that is required to enhance cisplatin IC50 values by 2-fold.

[3] = system: cisplatin resistant ovarian cancer cell line (2008/C13*5.25); experiment: as above; format: cell-based; conditions: 2008/C13*5.25, colony survival
Procedure: as §1

[4] = target: T1, ERCC1-XPF (Homo sapiens, UniProt P07992+Q92889); experiment: radiolabeled DNA incision assay (radiometric inhibition assay); format: biochemical; conditions: read-out: 50% inhibition in radiometric inhibition assay
T1 sequence (Q92889 1-916): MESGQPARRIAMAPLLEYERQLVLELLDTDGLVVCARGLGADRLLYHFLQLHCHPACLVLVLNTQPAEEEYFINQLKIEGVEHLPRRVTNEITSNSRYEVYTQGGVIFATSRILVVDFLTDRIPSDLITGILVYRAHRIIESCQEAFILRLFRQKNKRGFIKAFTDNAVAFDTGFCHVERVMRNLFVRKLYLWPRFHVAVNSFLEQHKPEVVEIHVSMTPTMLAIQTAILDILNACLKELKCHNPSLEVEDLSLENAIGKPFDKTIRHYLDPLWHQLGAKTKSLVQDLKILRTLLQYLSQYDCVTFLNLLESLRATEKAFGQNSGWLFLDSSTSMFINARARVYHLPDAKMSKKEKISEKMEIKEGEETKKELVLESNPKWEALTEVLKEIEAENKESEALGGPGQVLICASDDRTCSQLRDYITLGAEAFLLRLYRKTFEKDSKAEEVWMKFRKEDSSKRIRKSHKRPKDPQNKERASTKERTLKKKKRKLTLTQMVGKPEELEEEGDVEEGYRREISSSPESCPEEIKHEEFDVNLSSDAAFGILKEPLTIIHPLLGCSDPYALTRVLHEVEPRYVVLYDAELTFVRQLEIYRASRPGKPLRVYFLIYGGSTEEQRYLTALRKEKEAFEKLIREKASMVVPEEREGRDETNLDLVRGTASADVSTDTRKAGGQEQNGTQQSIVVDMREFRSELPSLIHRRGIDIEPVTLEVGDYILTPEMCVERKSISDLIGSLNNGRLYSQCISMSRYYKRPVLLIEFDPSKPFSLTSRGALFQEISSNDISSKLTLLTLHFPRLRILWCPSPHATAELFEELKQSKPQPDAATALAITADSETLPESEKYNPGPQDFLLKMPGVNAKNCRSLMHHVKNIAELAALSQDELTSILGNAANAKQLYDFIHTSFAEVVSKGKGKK
T1 sequence (P07992 1-297): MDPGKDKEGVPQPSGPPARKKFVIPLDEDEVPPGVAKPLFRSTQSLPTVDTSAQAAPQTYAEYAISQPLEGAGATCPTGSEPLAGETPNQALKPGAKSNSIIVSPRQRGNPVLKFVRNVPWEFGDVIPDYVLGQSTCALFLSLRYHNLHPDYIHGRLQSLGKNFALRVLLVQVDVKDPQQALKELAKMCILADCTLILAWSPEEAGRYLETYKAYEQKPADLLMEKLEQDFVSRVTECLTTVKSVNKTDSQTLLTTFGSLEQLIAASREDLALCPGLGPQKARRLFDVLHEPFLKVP
Procedure: (§2) For at least one reason, the lead compound was selected based on having nanomolar potency in the fluorescence assay (FIG. 2) and having the best response in enhancing cisplatin efficacy in cell culture models. Titration of lead compound in the ERCC1-XPF fluorescence assay yields an IC50 value of 400-500 nM (FIG. 2).
(§3) The synthesized compounds were tested in the in vitro fluorescence incision assay and radiolabeled DNA incision assay for potency and selectivity against ERCC1-XPF. These assays are based on forked synthetic DNA substrates and purified enzyme. The fluorescent DNA substrate is designed such that a fluorophore (Fl) is incorporated into the top DNA strand while a quencher (Q) molecule is incorporated in the bottom DNA strand and in close proximity to the Fl (FIG. 5).

[5] = system: cell culture; experiment: enhancement of cisplatin efficacy in cell culture; format: cell-based
Text: The Tosyl adduct is necessary for compound 1's ability to enhance cisplatin activity and inhibit DNA repair. Without this functionality, no activity in cell culture was observed. Derivatives synthesized in Pathways B and C, take further advantage of the Tosyl functional group, including the sulfonate linkage itself. Pathway B focuses on varying the substitution on the toluene ring. By substitution of the methyl substituent with hydrogen (3a), as well as a halogen (3c) or a propyl group (3d), steric tolerance is adjusted at this position. Alternatively, addition of a heteroatom within the aromatic ring, whether it is an oxygen (3e) or a nitrogen (3f), has little effect upon the steric environment but alters the electronic nature of this key substituent. Removal of the aromatic ring and replacement with an alkene (3b) encompasses both the steric and electronic features at this position. Pathway C exemplifies compounds with differing linkers to the tosyl moiety, namely substitution of the sulfonate as a thioether (4a), sulfoxide (4b), ester (4c), and ether (4d) or amine (4e).

[6] = target: T2, ERCC1-XPF endonuclease (Homo sapiens, UniProt P07992+Q92889); experiment: fluorescence based DNA incision assay with purified ERCC1-XPF; format: biochemical; conditions: purified enzyme, forked fluorescent DNA substrate
T2 sequence (Q92889 1-916): T1 sequence (Q92889 1-916)
T2 sequence (P07992 1-297): T1 sequence (P07992 1-297)
Text: Described herein is a robust fluorescence based incision assay which was used to initially screen a diverse drug library (˜2,000 compounds) in order to identify inhibitors of the ERCC1-XPF endonuclease. From the initial screen, five (5) small molecule Hits were identified that inhibited ERCC1-XPF nuclease activity with micromolar to nanomolar potency.
as §2, §3
When the DNA substrate is annealed, the Q quenches the fluorescent signal and results in low background fluorescence. […]

SMILES: N.N.[Cl][Pt][Cl] [cisplatin]
fold resistance to cisplatin, comparing IC50 values to the parental sensitive cell line [1]: ~4 fold

IC50 [4]: 0.4 to 0.5 µM
IC50 ([5]; with cisplatin, cell line not stated, read-out: enhancing cisplatin efficacy in cell culture (IC50)): 4 µM
IC50 ([6]; read-out: IC50 (50% inhibition) in ERCC1-XPF fluorescence assay): 0.4 to 0.5 µM
SMILES: Cc1ccc(S(=O)(=O)Oc2cc(S(=O)(=O)O)cc3cc(S(=O)(=O)O)cc(N)c23)cc1 [compound 1]
Combination Factor: concentration of lead compound required to enhance cisplatin IC50 values by 2-fold [2]: 7 to 8 µM
Combination Factor: concentration of lead compound required to enhance cisplatin IC50 values by 2-fold [3]: low micromolar range

IC50 ([6]; read-out: 50% fluorescent inhibition in the fluorescence incision assay): 3.2 to 3.6 µM
SMILES: COc1cc(S(=O)(=O)O)cc2cc(S(=O)(=O)O)cc(N)c12 [boxed portion of the molecule, reference compound]
effect in cell culture ([5]; data not shown): no effect
